Data on one molecule can be found in paper doi:10.1101/203372v2 (biorxiv, 2017).

The target in this test is T1, GST-HDAC6, human, recombinant (recombinant HDAC6 WT) (Homo sapiens, UniProt Q9UBN7).
T1 sequence (Q9UBN7 1-1215): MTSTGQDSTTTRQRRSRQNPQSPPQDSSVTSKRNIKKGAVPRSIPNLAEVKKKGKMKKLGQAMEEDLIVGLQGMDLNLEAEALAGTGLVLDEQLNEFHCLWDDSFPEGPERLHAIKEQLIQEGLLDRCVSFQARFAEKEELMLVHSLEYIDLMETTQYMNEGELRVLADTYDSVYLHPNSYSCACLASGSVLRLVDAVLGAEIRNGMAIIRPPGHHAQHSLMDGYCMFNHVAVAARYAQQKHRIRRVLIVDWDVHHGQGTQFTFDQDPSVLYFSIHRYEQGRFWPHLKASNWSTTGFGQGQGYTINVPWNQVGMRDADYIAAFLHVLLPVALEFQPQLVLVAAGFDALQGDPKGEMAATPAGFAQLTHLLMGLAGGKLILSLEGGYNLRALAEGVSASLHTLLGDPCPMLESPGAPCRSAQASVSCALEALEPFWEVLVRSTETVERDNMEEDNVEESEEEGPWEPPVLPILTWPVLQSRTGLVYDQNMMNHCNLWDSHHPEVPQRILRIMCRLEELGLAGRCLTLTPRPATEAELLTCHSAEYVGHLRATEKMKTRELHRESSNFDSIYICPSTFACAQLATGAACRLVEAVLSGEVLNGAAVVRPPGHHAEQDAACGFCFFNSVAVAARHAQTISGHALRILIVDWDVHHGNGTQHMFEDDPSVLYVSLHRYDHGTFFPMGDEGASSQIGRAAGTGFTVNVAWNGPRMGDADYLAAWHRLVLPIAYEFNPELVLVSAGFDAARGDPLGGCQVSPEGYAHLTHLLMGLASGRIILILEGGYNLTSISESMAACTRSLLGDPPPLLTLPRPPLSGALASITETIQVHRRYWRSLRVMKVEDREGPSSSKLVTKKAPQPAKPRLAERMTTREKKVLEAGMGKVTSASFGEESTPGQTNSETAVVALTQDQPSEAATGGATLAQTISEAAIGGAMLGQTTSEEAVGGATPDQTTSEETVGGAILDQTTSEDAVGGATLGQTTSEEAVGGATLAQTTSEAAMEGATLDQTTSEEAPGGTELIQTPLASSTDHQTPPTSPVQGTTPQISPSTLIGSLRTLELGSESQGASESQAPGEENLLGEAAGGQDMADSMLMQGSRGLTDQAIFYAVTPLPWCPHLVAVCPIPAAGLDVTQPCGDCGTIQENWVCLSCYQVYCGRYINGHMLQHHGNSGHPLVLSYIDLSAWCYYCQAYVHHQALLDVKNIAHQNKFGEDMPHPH
The test is described as follows: ELISA PPI competition, HDAC6 binding to immobilised His6-ubiquitin. On the technique in general: An ELISA detects its analyte on a solid surface through an enzyme-linked reagent.

Broadly, the IC50 is the midpoint of a concentration-inhibition curve. For the molecule `Cc1ccccc1OCCCn1cc(C=C2C(=N)N3N=CSC3=NC2=O)c2ccccc21` [compound 16], the IC50 was 78 µM.
